Measured values published in patent publication US10189839B2, “Tricyclic imidazole compounds as inhibitors of tryptophan hydroxylase” (ACTELION PHARMACEUTICALS LTD, priority 2013, dated 2019).

target: T1, full length human TPH1 (Homo sapiens, UniProt P17752); test: Biochemical in vitro assay using fluorescence readout (TPH1 enzyme activity); settings: Table 1, mean where determined several times
T1 construct: To generate the enzyme, full length human TPH1 is cloned into the plasmid pET20b(+); made in house; host or cells: E. coli
T1 sequence (P17752 1-444): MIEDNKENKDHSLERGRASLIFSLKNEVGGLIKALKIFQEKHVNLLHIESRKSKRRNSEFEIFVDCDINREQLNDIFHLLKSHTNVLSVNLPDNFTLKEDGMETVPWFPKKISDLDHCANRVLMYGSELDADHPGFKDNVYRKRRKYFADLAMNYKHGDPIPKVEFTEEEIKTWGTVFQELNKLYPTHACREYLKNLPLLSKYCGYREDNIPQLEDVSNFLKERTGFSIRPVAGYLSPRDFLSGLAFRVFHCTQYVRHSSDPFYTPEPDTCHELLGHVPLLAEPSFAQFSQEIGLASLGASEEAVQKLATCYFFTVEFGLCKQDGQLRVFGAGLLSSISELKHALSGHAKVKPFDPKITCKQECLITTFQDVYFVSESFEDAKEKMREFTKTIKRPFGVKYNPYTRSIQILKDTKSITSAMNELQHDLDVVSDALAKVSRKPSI
Description: Inhibitory activities on tryptophan hydroxylase 1 have been measured for each example compound using the following procedure:
Biochemical In Vitro Assay Using Fluorescence Readout
To generate the enzyme, full length human TPH1 is cloned into the plasmid pET20b(+) (Novagen) and expressed in E. coli. The bacterial cells are ruptured by sonication on ice and the lysate is cleared by centrifugation. The resulting protein in the pellet is re-extracted and TPH1 is purified from the obtained lysate by affinity chromatography using a pterin cosubstrate analog immobilized to the resin of the column. The protein is further purified by size exclusion chromatography to remove protein aggregates. The activity of TPH1 is determined by using a fluorescence assay. The enzyme activity assay is carried out at 15° C. with atmosphere oxygen for the duration of 60 minutes in a volume of 64 μl. The reaction is carried out in a 0.1M Tris-HCl buffer, adjusted to pH 7.6, containing 1 mM DTT, 0.2 mg/ml catalase, 100 μM (±)-6-methyl-5,6,7,8-tetrahydropterine dihydrochloride, 40 μM L-tryptophan, and 40-80 nM of TPH1. The reaction is started by bringing together L-tryptophan with all the other reaction substituents and stopped by quenching with perchloric acid (HClO4). The amount of 5-hydroxy-L-tryptophan produced during the enzymatic reaction is determined by fluorescence readout. Fluorescence, as determined at 540 nm when excited at 300 nm wavelength, increases proportionally to the 5-hydroxy-L-tryptophan formed. Compounds are prepared as 10 mM stock solution in DMSO, then diluted in 384-well plates using DMSO followed by a transfer of the dilutions into the assay plate. Fluorescence is measured for each well and the fluorescence at 540 nm wavelength is compared to the fluorescence of the vehicle in place of compound. Inhibitory activities of example compounds with respect to the TPH1 protein are determined by calculating the IC50 value (the concentration of compound needed to inhibit 50% of the enzyme activity). The calculated IC50 values may fluctuate depending on the daily biochemical assay performance. Fluctuations of this kind are known to those skilled in the art. In the case where IC50 values have been determined several times for the same compound, the mean is given.

Row | Structure (SMILES) | IC50
1 | Cc1nc(C)c(C2c3c(nc4n3CCCC4)CCN2C(=O)COc2ccc(N3CCN(C)CC3)nc2Cl)s1 (centres unmarked) [Example 1.10.9, 2-((2-chloro-6-(4-methylpiperazin-1-yl)pyridin-3-yl)oxy)-1-(1-(2,4-dimethylthiazol-5-yl)-3,4,6,7,8,9-hexahydroimidazo[1,2-a:5,4-c′]dipyridin-2(1H)-yl)ethanone] | 17 nM
2 | Cc1ccc(C2c3c(nc4n3CCN(C(=O)OC(C)(C)C)C4)CCN2C(=O)COc2ccc(CN3CCOCC3)cc2Cl)c(F)c1 (centres unmarked) [Example 5.12.1, tert-butyl 2-(2-(2-chloro-4-(morpholinomethyl)phenoxy)acetyl)-1-(2-fluoro-4-methylphenyl)-1,2,3,4,8,9-hexahydropyrido[4′,3′:4,5]imidazo[1,2-a]pyrazine-7(6H)-carboxylate] | 310 nM
3 | CN(C)C(=O)c1ccc(OCC(=O)N2CCc3nc4n(c3C2c2ccc(Cl)cc2F)CCN(C2CC2)C4)c(Cl)n1 (centres unmarked) [Example 5.1.4, 6-chloro-5-(2-(1-(4-chloro-2-fluorophenyl)-7-cyclopropyl-3,4,6,7,8,9-hexahydropyrido[4′,3′:4,5]imidazo[1,2-a]pyrazin-2(1H)-yl)-2-oxoethoxy)-N,N-dimethylpicolinamide] | 41 nM
4 | O=C(COc1ccc(N2CCCS2(=O)=O)nc1Cl)N1CCc2nc3n(c2C1c1ccc(Cl)cc1F)CCCC3 (centres unmarked) [Example 1.1.10, 1-(1-(4-chloro-2-fluorophenyl)-3,4,6,7,8,9-hexahydro-imidazo[1,2-a:5,4-c′]dipyridin-2(1H)-yl)-2-((2-chloro-6-(1,1-dioxidoisothiazolidin-2-yl)pyridin-3-yl)oxy)-ethanone] | 17 nM
5 | CN(C)c1ncc(C2c3c(nc4n3CCNC4)CCN2C(=O)COc2ccc(N3CCOCC3)nc2Cl)s1 (centres unmarked) [Example 5.6.1, 2-((2-chloro-6-morpholinopyridin-3-yl)oxy)-1-(1-(2-(dimethylamino)thiazol-5-yl)-3,4,6,7,8,9-hexahydropyrido[4′,3′:4,5]imidazo[1,2-a]pyrazin-2(1H)-yl)ethanone] | 415 nM
6 | CCc1nc(NS(C)(=O)=O)ccc1OCC(=O)N1CCc2nc3n(c2C1c1sc(C(=O)N(C)C)cc1F)CCCC3 (centres unmarked) [Example 1.4.2, 5-(2-(2-((2-ethyl-6-(methylsulfonamido)pyridin-3-yl)oxy)acetyl)-1,2,3,4,6,7,8,9-octahydroimidazo[1,2-a:5,4-c′]dipyridin-1-yl)-4-fluoro-N,N-dimethylthiophene-2-carboxamide] | 38 nM
7 | CCc1nc(C2CC2)ccc1OCC(=O)N1CCc2nc3n(c2C1c1ccc(Cl)cc1F)CCS3 (centres unmarked) [Example 4.1.14, 1-(5-(4-chloro-2-fluorophenyl)-2,3,7,8-tetrahydrothiazolo[2′,3′:2,3]imidazo[4,5-c]pyridin-6(5H)-yl)-2-((6-cyclopropyl-2-ethylpyridin-3-yl)oxy)ethanone] | 16 nM
8 | COCc1ccc(C2c3c(nc4n3CCCC4)CCN2C(=O)COc2ccc(NS(C)(=O)=O)nc2Cl)c(F)c1 (centres unmarked) [Example 1.26.2, N-(6-chloro-5-(2-(1-(2-fluoro-4-(methoxymethyl)phenyl)-3,4,6,7,8,9-hexahydroimidazo[1,2-a:5,4-c′]dipyridin-2(1H)-yl)-2-oxoethoxy)pyridin-2-yl)methanesulfonamide] | 25 nM
9 | Cc1nc(C)c(C2c3c(nc4n3CCCC4)CCN2C(=O)COc2ccc(C#N)nc2Cl)s1 (centres unmarked) [Example 1.10.6, 6-chloro-5-(2-(1-(2,4-dimethylthiazol-5-yl)-3,4,6,7,8,9-hexahydroimidazo[1,2-a:5,4-c′]dipyridin-2(1H)-yl)-2-oxoethoxy)picolinonitrile] | 77 nM
10 | CCc1nc(N2CCCS2(=O)=O)ccc1OCC(=O)N1CCc2nc3n(c2C1c1cnc(C)s1)CCCC3 (centres unmarked) [Example 1.15.2, 2-((6-(1,1-dioxidoisothiazolidin-2-yl)-2-ethylpyridin-3-yl)oxy)-1-(1-(2-methylthiazol-5-yl)-3,4,6,7,8,9-hexahydroimidazo[1,2-a:5,4-c′]dipyridin-2(1H)-yl)ethanone] | 27 nM

Now those with a lower IC50, led by results:

Row | IC50 | Structure (SMILES)
11 | 11 nM | CCc1nc(N2CCCS2(=O)=O)ccc1OCC(=O)N1CCc2nc3n(c2C1c1sc(C)nc1C)CCCC3 (centres unmarked) [Example 1.10.19, 1-(1-(2,4-dimethylthiazol-5-yl)-3,4,6,7,8,9-hexahydroimidazo[1,2-a:5,4-c′]dipyridin-2(1H)-yl)-2-((6-(1,1-dioxidoisothiazolidin-2-yl)-2-ethylpyridin-3-yl)oxy)ethan-1-one]
12 | 11 nM | CC(=O)N1CCn2c(nc3c2C(c2ccc(Cl)cc2F)N(C(=O)COc2ccc(C(=O)N(C)C)nc2Cl)CC3)C1 (centres unmarked) [Example 5.1.3, 5-(2-(7-acetyl-1-(4-chloro-2-fluorophenyl)-3,4,6,7,8,9-hexahydropyrido[4′,3′:4,5]imidazo[1,2-a]pyrazin-2(1H)-yl)-2-oxoethoxy)-6-chloro-N,N-dimethylpicolinamide]
13 | 10 nM | O=C(NC1CC1)c1ccc(OCC(=O)N2CCc3nc4n(c3C2c2ccc(Cl)cc2F)CCCC4)c(C2CC2)n1 (centres unmarked) [Example 1.1.22, 5-(2-(1-(4-chloro-2-fluorophenyl)-3,4,6,7,8,9-hexahydroimidazo[1,2-a:5,4-c′]dipyridin-2(1H)-yl)-2-oxoethoxy)-N,6-dicyclopropylpicolinamide]
14 | 9 nM | CCc1nc(C(=O)NC2CC2)ccc1OCC(=O)N1CCc2nc3n(c2[C@@H]1c1sc(C)nc1C)CCC3 [Example 2.4.3, (R)-N-cyclopropyl-5-(2-(1-(2,4-dimethylthiazol-5-yl)-3,4,7,8-tetrahydro-1H-pyrrolo[2′,1′:2,3]imidazo[4,5-c]pyridin-2(6H)-yl)-2-oxoethoxy)-6-ethylpicolinamide]
15 | 8 nM | CCc1nc(N2CCCS2(=O)=O)ccc1OCC(=O)N1CCc2nc3n(c2C1c1ccc(Cl)cc1F)CCC3 (centres unmarked) [Example 2.1.3, 1-(1-(4-chloro-2-fluorophenyl)-3,4,7,8-tetrahydro-1H-pyrrolo[2′,1′:2,3]imidazo[4,5-c]pyridin-2(6H)-yl)-2-((6-(1,1-dioxidoisothiazolidin-2-yl)-2-ethylpyridin-3-yl)oxy)ethanone]
16 | 8 nM | CCc1nc(NS(C)(=O)=O)ccc1OCC(=O)N1CCc2nc3n(c2[C@@H]1c1ccc(Cl)cc1F)CCCC3 [Example 1.1.18, (S)-N-(5-(2-(1-(4-chloro-2-fluorophenyl)-3,4,6,7,8,9-hexahydroimidazo[1,2-a:5,4-c′]dipyridin-2(1H)-yl)-2-oxoethoxy)-6-ethylpyridin-2-yl)methanesulfonamide]
17 | 7 nM | CCc1nc(NS(C)(=O)=O)ccc1OCC(=O)N1CCc2nc3n(c2[C@@H]1c1sc(C)nc1C)CCC3 [Example 2.4.2, (R)-N-(5-(2-(1-(2,4-dimethylthiazol-5-yl)-3,4,7,8-tetrahydro-1H-pyrrolo[2′,1′:2,3]imidazo[4,5-c]pyridin-2(6H)-yl)-2-oxoethoxy)-6-ethylpyridin-2-yl)methanesulfonamide]
18 | 7 nM | Cc1ccc(C2c3c(nc4n3CCOC4)CCN2C(=O)COc2ccc(C(=O)N(C)C)nc2Cl)c(F)c1 (centres unmarked) [Example 6.5.1, 6-chloro-5-(2-(6-(2-fluoro-4-methylphenyl)-3,4,8,9-tetrahydro-1H-pyrido[4′,3′:4,5]imidazo[2,1-c][1,4]oxazin-7(6H)-yl)-2-oxoethoxy)-N,N-dimethylpicolinamide]
19 | 6 nM | CCc1nc(NS(C)(=O)=O)ccc1OCC(=O)N1CCc2nc3n(c2C1c1cc(F)c(C)cc1F)CCS3 (centres unmarked) [Example 4.7.1, N-(5-(2-(5-(2,5-difluoro-4-methylphenyl)-2,3,7,8-tetrahydrothiazolo[2′,3′:2,3]imidazo[4,5-c]pyridin-6(5H)-yl)-2-oxoethoxy)-6-ethylpyridin-2-yl)methanesulfonamide]
20 | 6 nM | O=C(COc1ccc(N2CCCS2(=O)=O)nc1Cl)N1CCc2nc3n(c2[C@@H]1c1ccc(Cl)cc1F)CCS3 [Example 4.1.16, (S)-1-(5-(4-chloro-2-fluorophenyl)-2,3,7,8-tetrahydrothiazolo[2′,3′:2,3]imidazo[4,5-c]pyridin-6(5H)-yl)-2-((2-chloro-6-(1,1-dioxidoisothiazolidin-2-yl)pyridin-3-yl)oxy)ethanone]
